Target: Peptidyl-prolyl cis-trans isomerase FKBP1A (Homo sapiens, UniProt P62942)
Assay: Inhibition of peptidyl-prolyl isomerase (PPIase, or rotamase) activity of FK506 binding protein 12

Chain of Peptidyl-prolyl cis-trans isomerase FKBP1A (P62942 whole entry): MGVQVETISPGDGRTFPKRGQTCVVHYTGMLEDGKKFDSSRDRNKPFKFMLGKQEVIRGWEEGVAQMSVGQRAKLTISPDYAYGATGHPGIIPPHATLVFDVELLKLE

Row | Ki | Structure (SMILES)
1 | 6000 nM | C[C@@H](NC(=O)N1CCC[C@H]1C(=O)OCCCc1ccc(Cl)cc1)c1ccccc1
2 | 1200 nM | O=C(OCCCc1ccc(F)cc1)[C@@H]1CCCN1C(=O)NC12C[C@H]3C[C@@H](C1)C[C@@H](C2)C3
3 | 32 nM | COc1ccc(CCCOC(=O)C2CCCCN2C(=O)NC23CC4CC(CC(C4)C2)C3)cc1OC (stereo not given)
4 | 2100 nM | O=C(OCc1ccccc1)[C@@H]1CCCN1C(=O)NC12C[C@H]3C[C@@H](C1)C[C@@H](C2)C3
5 | 5200 nM | O=C(OCCCc1ccccc1)[C@@H]1CCCN1C(=S)NC12C[C@H]3C[C@@H](C1)C[C@@H](C2)C3
6 | 180 nM | COc1ccc(CCCOC(=O)C2CCCCN2S(=O)(=O)c2ccccc2)cc1OC (stereo not given)
7 | 2700 nM | O=C(OCCCc1ccc(Br)cc1)C1CCCCN1S(=O)(=O)Cc1ccccc1 (stereo not given)
8 | 3800 nM | O=C(OCCCc1ccc(Cl)cc1)C1CCCCN1S(=O)(=O)c1ccccc1 (stereo not given)
9 | 92 nM | COc1ccc(CCCOC(=O)C2CCCCN2S(=O)(=O)Cc2ccccc2)cc1 (stereo not given)
10 | 260 nM | COc1ccc(CCCOC(=O)C2CCCCN2S(=O)(=O)c2ccccc2)cc1 (stereo not given)
11 | 4400 nM | C[C@@H](NC(=O)N1CCC[C@H]1C(=O)OCCCc1ccc(F)cc1)c1ccccc1
12 | 820 nM | O=C(OCCCc1ccccc1)[C@@H]1CCCN1C(=O)Nc1ccccc1
13 | 24000 nM | O=C(OCc1ccccc1)[C@@H]1CCCN1C(=O)Nc1ccccc1
14 | 7200 nM | O=C(OCCCCc1ccccc1)[C@@H]1CCCN1C(=S)NC12C[C@H]3C[C@@H](C1)C[C@@H](C2)C3
15 | 47 nM | COc1ccc(CCCOC(=O)C2CCCCN2S(=O)(=O)Cc2ccccc2)cc1OC (stereo not given)
16 | > 10000 nM | C[C@@H](NC(=O)N1CCC[C@H]1C(=O)OCCCc1ccc(Br)cc1)c1ccccc1
17 | 18000 nM | O=C(OCc1ccccc1)[C@@H]1CCCN1C(=S)NC12C[C@H]3C[C@@H](C1)C[C@@H](C2)C3
18 | 1000 nM | O=C(OCCCc1ccccc1)[C@@H]1CCCN1C(=O)NC12C[C@H]3C[C@@H](C1)C[C@@H](C2)C3
19 | 1300 nM | O=C(OCCc1ccccc1)[C@@H]1CCCN1C(=O)Nc1ccccc1
20 | 320 nM | O=C(OCCCc1ccc(F)cc1)C1CCCCN1S(=O)(=O)Cc1ccccc1 (stereo not given)

Row | Ki | Structure (SMILES)
21 | 400 nM | COc1cc(CCCOC(=O)C2CCCCN2S(=O)(=O)c2ccc(C)cc2)cc(OC)c1 (stereo not given)
22 | 3100 nM | O=C(OCCCc1ccc(Br)cc1)[C@@H]1CCCN1C(=O)NC12C[C@H]3C[C@@H](C1)C[C@@H](C2)C3
23 | 480 nM | COc1cc(CCCOC(=O)C2CCCCN2S(=O)(=O)c2ccccc2)cc(OC)c1 (stereo not given)
24 | 86 nM | COc1ccc(CCCOC(=O)[C@@H]2CCCN2/C(S)=N/C2CCCCC2)cc1OC
25 | 1500 nM | O=C(OCCCc1ccc(Cl)cc1)[C@@H]1CCCN1C(=S)NC12C[C@H]3C[C@@H](C1)C[C@@H](C2)C3
26 | 470 nM | O=C(OCCCCc1ccccc1)[C@@H]1CCCN1C(=O)NC12C[C@H]3C[C@@H](C1)C[C@@H](C2)C3
27 | 4400 nM | Cc1ccc(S(=O)(=O)N2CCCCC2C(=O)OCCCc2ccc(Cl)cc2)cc1 (stereo not given)
28 | 740 nM | O=C(OCCCc1ccc(F)cc1)C1CCCCN1S(=O)(=O)c1ccccc1 (stereo not given)
29 | 8000 nM | O=C(OCCCc1ccc(Br)cc1)C1CCCCN1S(=O)(=O)c1ccccc1 (stereo not given)
30 | 1400 nM | Cc1ccc(S(=O)(=O)N2CCCCC2C(=O)OCCCc2ccc(F)cc2)cc1 (stereo not given)
31 | 1300 nM | O=C(OCCc1ccccc1)[C@@H]1CCCN1C(=O)NC12C[C@H]3C[C@@H](C1)C[C@@H](C2)C3
32 | 2300 nM | O=C(OCCCc1ccc(Cl)cc1)[C@@H]1CCCN1C(=O)NC12C[C@H]3C[C@@H](C1)C[C@@H](C2)C3
33 | 47000 nM | O=C(OCCc1ccccc1)[C@@H]1CCCN1C(=S)NC12C[C@H]3C[C@@H](C1)C[C@@H](C2)C3
34 | 420 nM | O=C(OCCCc1ccc(Cl)cc1)C1CCCCN1S(=O)(=O)Cc1ccccc1 (stereo not given)
35 | 120 nM | COc1cc(CCCOC(=O)C2CCCCN2S(=O)(=O)Cc2ccccc2)cc(OC)c1 (stereo not given)
36 | 220 nM | COc1ccc(CCCOC(=O)C2CCCCN2S(=O)(=O)c2ccc(C)cc2)cc1 (stereo not given)
37 | 850 nM | O=C(OCCCc1ccc(F)cc1)[C@@H]1CCCN1/C(S)=N/C12C[C@H]3C[C@@H](C1)C[C@@H](C2)C3
38 | 12 nM | COc1ccc(CCCOC(=O)C2CCCCN2C(=O)NC23CC4CC(CC(C4)C2)C3)c(OC)c1 (stereo not given)
39 | 22 nM | COc1ccc(CCCOC(=O)[C@@H]2CCCN2S(=O)(=O)Cc2ccccc2)cc1
40 | 6300 nM | O=C(OCCCc1ccc(Br)cc1)[C@@H]1CCCN1C(=S)NC12C[C@H]3C[C@@H](C1)C[C@@H](C2)C3
